Test system: lactating Holstein milk cows
Experiment: Crossover feeding test of 5-ALA-supplemented total mixed ration on milk yield and milk composition of lactating cows
Assay type: in vivo
Description: Effects of ALAs on the milk composition of a lactating cow was studied. Six lactating Holstein milk cows (average body weight 698±18 kg, average milk production 24.1±1.6 kg/d, average days-in-milk (DIM) 209±34 days, and average number of lactations 2.9±0.4) were placed in a free stable. After a 7-day grace period, 6 cows were randomly assigned to section A and section B (each group n=3). Section A had, after a grace period, an ALA administration period of 14 days (ALA Consumption Group A), with an adjustment period of 7 days interposed, followed by an ALA non-administration period of 14 days (Control Group A), whereas Section B had, after a grace period, an ALA non-administration period of 14 days (Control Group B), with an adjustment period of 7 days interposed, followed by an ALA administration period of 14 days (ALA Consumption Group B), whereby the test was carried out by the crossover method. A total mixed ration (TMR) (see Table 2) which had been used was fed during the above grace period, adjustment period and ALA non-administration period, and a feed to which 10 mg of 5-ALA was added per kg of the total mixed ration (TMR) was fed during the ALA administration period.
5-ALA was provided by neopharma Japan Co., Ltd. Each feed and water were available at any time but feed consumption of each group on a dry base was 23.4 kg/day per cow in the control groups and 23.6 kg/day per cow in the ALA groups. Thus, the daily consumption of 5-ALA in the ALA groups was 0.329.6 mg to 0.347.1 mg/kg b.w./day. Each of the milk cows was milked at 09:00 and 17:00 and allowed to consume each feed at any time after milking.
Amounts of Milking from each cow were automatically recorded everyday by an auto milk recorder (manufactured by ORION MACHINERY CO., LTD.). Additionally, for each group of Section A and Section B, during the last 2 days in the ALA administration period of 14 days and the non-administration period of 14 days, 50 to 100 mL of milk was collected twice a day from cows of each period to use as milk samples for data analysis. The milk samples were preserved at −30° C. until the milk composition and the like were analyzed.
Using the above milk samples collected from each of the cows, the milk composition such as milk fat, proteins, casein, lactose, total solid (TS), solid not fat (SNF), milk urea nitrogen (MUN) and somatic cell count (SCC) was measured using a […] infrared spectroscopy (Milko-Scan, 133N, manufactured by Foss Electric, Hill-erod (Denmark)). Data of each cow were calculated as an average value of 4 milk samples collected for 2 days. For each group of Section A and Section B, the data average of the ALA administration periods (ALA Group A and ALA Group B) was shown under the item of ALA consumption groups, and the data average of the non-administration periods (Control Group A and Control Group B) was shown under the item of Control groups. The data were analyzed statistically as a crossover design using the mixing procedure of SPSS (PASW Statistics 18.0, manufactured by IBM). Statistical analysis of each result was carried out by mixed model and p<0.05(*) meant statistically significant difference. A tendency toward significance was considered at p<0.10.

[1] = 10 mg 5-ALA per kg TMR, 14 days, milk of last 2 days, ± standard error
[2] = 10 mg 5-ALA per kg TMR, 14 days, milk of last 2 days, ± standard error, p<0.05 vs control
[3] = feed to which 5-ALA was added, p<0.05

SMILES: NCC(=O)CCC(=O)O [5-ALA, 5-aminolevulinic acid]
- Milk yield (10 mg 5-ALA per kg TMR fed for 14 days, crossover, n=6, ± standard error): 23.78 ± 1.67 kg/day
- Milk composition: Fat [1]: 4.42 ± 0.14%
- Milk composition: Lactose [1]: 4.82 ± 0.02%
- Milk composition: Non-fat solid [1]: 9.03 ± 0.17%
- Milk composition: Overall solid [1]: 13.34 ± 0.28%
- Milk composition: Casein [2]: 2.71 ± 0.09 a %
- Milk composition: Proteins [2]: 3.51 ± 0.12 a %
- Lactose compared with Control Groups (feed to which 5-ALA was added): no particular differences
- Milk fat compared with Control Groups (feed to which 5-ALA was added): no particular differences
- Milk yield compared with Control Groups (feed to which 5-ALA was added): no particular differences
- Non-fat solid compared with Control Groups (feed to which 5-ALA was added): no particular differences
- Overall solid compared with Control Groups (feed to which 5-ALA was added): no particular differences
- Casein content in milk compared with Control Groups [3]: increased significantly
- Protein content in milk compared with Control Groups [3]: increased significantly

— patent publication US11273136B2, “Method for increasing protein content in milk of lactating cows” (neopharma Japan Co., Ltd., priority 2019, dated 2022)
